IC50 data for three compounds are collected here from US8114865B2, “Indazole derivatives as kinase inhibitors for the treatment of cancer” (Nerviano Medical Sciences S.R.L., priority 2006, dated 2012).

Test [1] deals with T1, Aurora-2 (Homo sapiens, UniProt O14965).
T1 sequence (O14965 1-403): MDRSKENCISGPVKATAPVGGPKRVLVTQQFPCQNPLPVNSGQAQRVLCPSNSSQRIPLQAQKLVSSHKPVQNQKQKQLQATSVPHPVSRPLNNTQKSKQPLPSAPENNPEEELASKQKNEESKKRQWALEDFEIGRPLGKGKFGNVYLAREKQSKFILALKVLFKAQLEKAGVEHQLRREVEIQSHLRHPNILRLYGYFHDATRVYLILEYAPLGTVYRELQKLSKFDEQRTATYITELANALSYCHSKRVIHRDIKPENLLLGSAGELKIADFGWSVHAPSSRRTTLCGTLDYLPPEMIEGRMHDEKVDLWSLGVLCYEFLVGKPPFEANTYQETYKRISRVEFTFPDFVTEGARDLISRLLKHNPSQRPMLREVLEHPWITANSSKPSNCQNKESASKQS
Briefly: Biochemical assay for inhibitors of Aurora-2 kinase activity. Conditions: read-out: Aur2 IC50. The protocol:
The in vitro kinase inhibition assay was conducted mimilarly as described for IGF-1R.
The kinase buffer was composed of 50 mM HEPES, pH 7.0, 10 mM MgCl2, 1 mM DTT, 3 microM Na3VO4, and 0.2 mg/mL BSA.
The kinase assay was run with an enzyme concentration of 2.5 nM, 10 microM ATP, 1 nM ^33P-γ-ATP, and 8 microM substrate, composed of 4 LRRWSLG repeats.

For test [2], the system named is IGF1-induced S6 phosphorylation. Briefly: Growth factor induced S6 ribosomal protein phosphorylation in primary human fibroblasts. It counts as cell-based. The settings on record: normal human dermal fibroblasts (NHDF), 10 nM IGF-1. The protocol:
Phosphorylation of S6 ribosomal protein in response to growth factor stimulation of normal human dermal fibroblasts (NHDF) was used to assess compound potency in inhibiting IGF-1 induced signal transduction in cells, and selectivity towards EGF and PDGF stimulus. NHDF cells obtained from PromoCell (Heidelberg, Germany), were maintained at 37° C. in a humidified atmosphere with 5% CO2 in complete Fibroblast Growth Medium (PromoCell). For assay, NHDF were seeded in 384-well tissue culture plates (clear- and flat-bottomed black plates; Matrix Technologies Inc., Hudson, N.H., USA) at a density of 5000 cells/well in serum-free medium containing 0.1% bovine serum albumin (BSA) and incubated for 5 days. Starved cells were treated for 1 hour with desired doses of compounds and then stimulated for a further 2 hours with either 10 nM IGF-1 (Invitrogen Corp., CA, USA), 10 nM EGF (Gibco BRL, USA) or 1 nM PDGF-B/B (Roche Diagnostics GmbH, Germany). Cells were then fixed in PBS/3.7% paraformaldehyde for 20 minutes at room temperature, washed ×2 with PBS, and permeabilized with PBS/0.3% Triton X-100 for 15 minutes. Wells were then saturated with PBS/1% non-fat dry milk (Bio-Rad Laboratories, Hercules, Calif., USA) for 1 hour, and then probed for 1 hour at 37° C. with anti-phospho-S6 (Ser 235/236) antibody (Cell Signaling Technology, Beverly, Mass., USA, cat. #2211) at 1/200 dilution in PBS/1% milk/0.3% Tween 20. Wells were then washed twice with PBS, and incubated for 1 hour at 37° C. with PBS/1% milk/0.3% Tween 20+1 microg/mL DAPI (4,6-diamidino-2-phenylindole)+ 1/500 Goat anti-rabbit Cy5™-conjugated secondary antibody (Amersham Biosciences, Little Chalfont, Buckinghamshire, UK). […] Fluorescence images in the DAPI and Cy5™ channels were automatically acquired, stored and analysed using a Cellomics ArrayScan™ IV instrument (Cellomics, Pittsburgh, USA); the Cellomics Cytotoxicity Algorithm was used to quantify cytoplasmic fluorescence associated with phospho-S6 (Cy5™ signal parameter: “Mean Lyso Mass-pH”) for each cell in 10 fields/well, and eventually expressed as a mean population value. […]

`CN1CCN(c2ccc(C(=O)Nc3n[nH]c4ccc(S(=O)(=O)c5ccccc5)cc34)cc2)CC1` [Compound 1, N-(5-Benzenesulfonyl-1H-indazol-3-yl)-4-(4-methyl-piperazin-1-yl)-benzamide]: the concentration for half-maximal inhibition (IC50) was 26 nM in test [1] and greater than 10000 nM in test [2].

On to `CN1CCN(c2ccc(C(=O)Nc3n[nH]c4ccc(S(=O)(=O)c5ccccc5)cc34)c(NC(=O)c3ccc[nH]3)c2)CC1` [Compound 33, 1H-pyrrole-2-carboxylic acid [2-(5-benzenesulfonyl-1H-indazol-3-ylcarbamoyl)-5-(4-methyl-piperazin-1-yl)-phenyl]amide], for which the IC50 in test [1] was 9 nM; in test [2], 270 nM.

In the case of `CN1CCN(c2ccc(C(=O)Nc3n[nH]c4ccc(S(=O)(=O)c5ccccc5)cc34)c(NC(=O)[C@@H]3CCCO3)c2)CC1` [Compound 36, (S)-Tetrahydro-furan-2-carboxylic acid [2-(5-benzenesulfonyl-1H-indazol-3-ylcarbamoyl)-5-(4-methyl-piperazin-1-yl)-phenyl]-amide], the IC50 was found to be 19 nM in test [1] and 1200 nM in test [2].
